These molecules were tested on test plant species (assay: Post-emergent herbicidal activity test (greenhouse, foliar spray, visual growth reduction)). Conditions: post-emergence, 336 h, ECHCG: barnyardgrass (Echinochloa crus-galli), 140 g ai/ha, 14 days after application, read-out: Visual Growth Reduction (%) 14 Days After Application, ECHCG.
Assay type: in vivo
In short: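 Seedlings were raised 7-21 d in a greenhouse under a 15 h photoperiod until the first or second true leaf. Each compound, dissolved in acetone:DMSO 97:3 and diluted into a surfactant-containing spray mixture, was then applied at 187 L/ha. Plants were subirrigated, and growth reduction was scored visually at 14 d.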

| SMILES | pest or weed control at 140 g/ha |
| --- | --- |
| CCOc1c(Cl)ccc(-c2ccc(Cl)c(C(=O)OC)n2)c1Cl [F276, Methyl 3-chloro-6-(2,4-dichloro-3-ethoxyphenyl) picolinate] | 0 to 29% |
| COC(=O)c1nc(-c2ccc(Cl)nc2Cl)ccc1Cl [F284, Methyl 2′,5,6′-trichloro-[2,3′-bipyridine]-6-carboxylate] | 0 to 29% |
| CCCOC(=O)c1nc(-c2ccc(Cl)c(OC)c2F)ccc1Cl [F286, Propyl 3-chloro-6-(4-chloro-2-fluoro-3-methoxyphenyl) picolinate] | 0 to 29% |

Same assay, conditions: post-emergence, 336 h, IPOHE: ivy-leaf morning glory (Ipomoea hederacea), 140 g ai/ha, 14 days after application, read-out: Visual Growth Reduction (%) 14 Days After Application, IPOHE

| SMILES | pest or weed control at 140 g/ha |
| --- | --- |
| CCOc1c(Cl)ccc(-c2ccc(Cl)c(C(=O)OC)n2)c1Cl [F276, Methyl 3-chloro-6-(2,4-dichloro-3-ethoxyphenyl) picolinate] | 0 to 29% |
| COC(=O)c1nc(-c2ccc(Cl)nc2Cl)ccc1Cl [F284, Methyl 2′,5,6′-trichloro-[2,3′-bipyridine]-6-carboxylate] | 60 to 74% |
| CCCOC(=O)c1nc(-c2ccc(Cl)c(OC)c2F)ccc1Cl [F286, Propyl 3-chloro-6-(4-chloro-2-fluoro-3-methoxyphenyl) picolinate] | 60 to 74% |

Same assay, conditions: post-emergence, 336 h, KCHSC: kochia (Bassia scoparia), 140 g ai/ha, 14 days after application, read-out: Visual Growth Reduction (%) 14 Days After Application, KCHSC

| SMILES | pest or weed control at 140 g/ha |
| --- | --- |
| CCOc1c(Cl)ccc(-c2ccc(Cl)c(C(=O)OC)n2)c1Cl [F276, Methyl 3-chloro-6-(2,4-dichloro-3-ethoxyphenyl) picolinate] | 0 to 29% |
| COC(=O)c1nc(-c2ccc(Cl)nc2Cl)ccc1Cl [F284, Methyl 2′,5,6′-trichloro-[2,3′-bipyridine]-6-carboxylate] | 0 to 29% |
| CCCOC(=O)c1nc(-c2ccc(Cl)c(OC)c2F)ccc1Cl [F286, Propyl 3-chloro-6-(4-chloro-2-fluoro-3-methoxyphenyl) picolinate] | 60 to 74% |

Same assay, conditions: post-emergence, 336 h, ORYSA: rice (Oryza sativa), 140 g ai/ha, 14 days after application, read-out: Visual Growth Reduction (%) 14 Days After Application, ORYSA

| SMILES | pest or weed control at 140 g/ha |
| --- | --- |
| CCOc1c(Cl)ccc(-c2ccc(Cl)c(C(=O)OC)n2)c1Cl [F276, Methyl 3-chloro-6-(2,4-dichloro-3-ethoxyphenyl) picolinate] | 0 to 29% |
| COC(=O)c1nc(-c2ccc(Cl)nc2Cl)ccc1Cl [F284, Methyl 2′,5,6′-trichloro-[2,3′-bipyridine]-6-carboxylate] | 0 to 29% |
| CCCOC(=O)c1nc(-c2ccc(Cl)c(OC)c2F)ccc1Cl [F286, Propyl 3-chloro-6-(4-chloro-2-fluoro-3-methoxyphenyl) picolinate] | 0 to 29% |

Same assay, conditions: post-emergence, 336 h, SETFA: giant foxtail (Setaria faberi), 140 g ai/ha, 14 days after application, read-out: Visual Growth Reduction (%) 14 Days After Application, SETFA

| SMILES | pest or weed control at 140 g/ha |
| --- | --- |
| CCOc1c(Cl)ccc(-c2ccc(Cl)c(C(=O)OC)n2)c1Cl [F276, Methyl 3-chloro-6-(2,4-dichloro-3-ethoxyphenyl) picolinate] | 0 to 29% |
| COC(=O)c1nc(-c2ccc(Cl)nc2Cl)ccc1Cl [F284, Methyl 2′,5,6′-trichloro-[2,3′-bipyridine]-6-carboxylate] | 0 to 29% |
| CCCOC(=O)c1nc(-c2ccc(Cl)c(OC)c2F)ccc1Cl [F286, Propyl 3-chloro-6-(4-chloro-2-fluoro-3-methoxyphenyl) picolinate] | 0 to 29% |

Same assay, conditions: post-emergence, 336 h, SORVU: grain sorghum (Sorghum vulgare), 140 g ai/ha, 14 days after application, read-out: Visual Growth Reduction (%) 14 Days After Application, SORVU

| SMILES | pest or weed control at 140 g/ha |
| --- | --- |
| CCOc1c(Cl)ccc(-c2ccc(Cl)c(C(=O)OC)n2)c1Cl [F276, Methyl 3-chloro-6-(2,4-dichloro-3-ethoxyphenyl) picolinate] | 0 to 29% |
| COC(=O)c1nc(-c2ccc(Cl)nc2Cl)ccc1Cl [F284, Methyl 2′,5,6′-trichloro-[2,3′-bipyridine]-6-carboxylate] | 85 to 94% |
| CCCOC(=O)c1nc(-c2ccc(Cl)c(OC)c2F)ccc1Cl [F286, Propyl 3-chloro-6-(4-chloro-2-fluoro-3-methoxyphenyl) picolinate] | 0 to 29% |

Same assay, conditions: post-emergence, 336 h, STEME: common chickweed (Stellaria media), 140 g ai/ha, 14 days after application, read-out: Visual Growth Reduction (%) 14 Days After Application, STEME

| SMILES | pest or weed control at 140 g/ha |
| --- | --- |
| CCOc1c(Cl)ccc(-c2ccc(Cl)c(C(=O)OC)n2)c1Cl [F276, Methyl 3-chloro-6-(2,4-dichloro-3-ethoxyphenyl) picolinate] | 0 to 29% |
| COC(=O)c1nc(-c2ccc(Cl)nc2Cl)ccc1Cl [F284, Methyl 2′,5,6′-trichloro-[2,3′-bipyridine]-6-carboxylate] | 0 to 29% |
| CCCOC(=O)c1nc(-c2ccc(Cl)c(OC)c2F)ccc1Cl [F286, Propyl 3-chloro-6-(4-chloro-2-fluoro-3-methoxyphenyl) picolinate] | 0 to 29% |

Same assay, conditions: post-emergence, 336 h, TRZAS: wheat, spring (Triticum aestivum), 140 g ai/ha, 14 days after application, read-out: Visual Growth Reduction (%) 14 Days After Application, TRZAS

| SMILES | pest or weed control at 140 g/ha |
| --- | --- |
| CCOc1c(Cl)ccc(-c2ccc(Cl)c(C(=O)OC)n2)c1Cl [F276, Methyl 3-chloro-6-(2,4-dichloro-3-ethoxyphenyl) picolinate] | 0 to 29% |
| COC(=O)c1nc(-c2ccc(Cl)nc2Cl)ccc1Cl [F284, Methyl 2′,5,6′-trichloro-[2,3′-bipyridine]-6-carboxylate] | 0 to 29% |
| CCCOC(=O)c1nc(-c2ccc(Cl)c(OC)c2F)ccc1Cl [F286, Propyl 3-chloro-6-(4-chloro-2-fluoro-3-methoxyphenyl) picolinate] | 0 to 29% |

Same assay, conditions: post-emergence, 336 h, blackgrass (Alopecurus myosuroides), 14 Days After Application, 140 g ai/ha, read-out: Visual Growth Reduction (%) ALOMY

| SMILES | pest or weed control at 140 g/ha |
| --- | --- |
| CCOc1c(Cl)ccc(-c2ccc(Cl)c(C(=O)OC)n2)c1Cl [F276, Methyl 3-chloro-6-(2,4-dichloro-3-ethoxyphenyl) picolinate] | 0 to 29% |
| COC(=O)c1nc(-c2ccc(Cl)nc2Cl)ccc1Cl [F284, Methyl 2′,5,6′-trichloro-[2,3′-bipyridine]-6-carboxylate] | 0 to 29% |
| CCCOC(=O)c1nc(-c2ccc(Cl)c(OC)c2F)ccc1Cl [F286, Propyl 3-chloro-6-(4-chloro-2-fluoro-3-methoxyphenyl) picolinate] | 0 to 29% |

Same assay, conditions: post-emergence, 336 h, canada thistle (Cirsium arvense), 14 Days After Application, 140 g ai/ha, read-out: Visual Growth Reduction (%) CIRAR

| SMILES | pest or weed control at 140 g/ha |
| --- | --- |
| CCOc1c(Cl)ccc(-c2ccc(Cl)c(C(=O)OC)n2)c1Cl [F276, Methyl 3-chloro-6-(2,4-dichloro-3-ethoxyphenyl) picolinate] | 0 to 29% |
| COC(=O)c1nc(-c2ccc(Cl)nc2Cl)ccc1Cl [F284, Methyl 2′,5,6′-trichloro-[2,3′-bipyridine]-6-carboxylate] | 30 to 44% |
| CCCOC(=O)c1nc(-c2ccc(Cl)c(OC)c2F)ccc1Cl [F286, Propyl 3-chloro-6-(4-chloro-2-fluoro-3-methoxyphenyl) picolinate] | 60 to 74% |

Same assay, conditions: post-emergence, 336 h, crabgrass (Digitaria sanguinalis), 14 Days After Application, 140 g ai/ha, read-out: Visual Growth Reduction (%) DIGSA

| SMILES | pest or weed control at 140 g/ha |
| --- | --- |
| CCOc1c(Cl)ccc(-c2ccc(Cl)c(C(=O)OC)n2)c1Cl [F276, Methyl 3-chloro-6-(2,4-dichloro-3-ethoxyphenyl) picolinate] | 0 to 29% |
| COC(=O)c1nc(-c2ccc(Cl)nc2Cl)ccc1Cl [F284, Methyl 2′,5,6′-trichloro-[2,3′-bipyridine]-6-carboxylate] | 0 to 29% |
| CCCOC(=O)c1nc(-c2ccc(Cl)c(OC)c2F)ccc1Cl [F286, Propyl 3-chloro-6-(4-chloro-2-fluoro-3-methoxyphenyl) picolinate] | 0 to 29% |

Same assay, conditions: post-emergence, 336 h, lambsquarters (Chenopodium album), 14 Days After Application, 140 g ai/ha, read-out: Visual Growth Reduction (%) CHEAL

| SMILES | pest or weed control at 140 g/ha |
| --- | --- |
| CCOc1c(Cl)ccc(-c2ccc(Cl)c(C(=O)OC)n2)c1Cl [F276, Methyl 3-chloro-6-(2,4-dichloro-3-ethoxyphenyl) picolinate] | 0 to 29% |
| COC(=O)c1nc(-c2ccc(Cl)nc2Cl)ccc1Cl [F284, Methyl 2′,5,6′-trichloro-[2,3′-bipyridine]-6-carboxylate] | 0 to 29% |
| CCCOC(=O)c1nc(-c2ccc(Cl)c(OC)c2F)ccc1Cl [F286, Propyl 3-chloro-6-(4-chloro-2-fluoro-3-methoxyphenyl) picolinate] | 75 to 84% |

Same assay, conditions: post-emergence, 336 h, redroot pigweed (Amaranthus retroflexus), 14 Days After Application, 140 g ai/ha, read-out: Visual Growth Reduction (%) AMARE

| SMILES | pest or weed control at 140 g/ha |
| --- | --- |
| CCOc1c(Cl)ccc(-c2ccc(Cl)c(C(=O)OC)n2)c1Cl [F276, Methyl 3-chloro-6-(2,4-dichloro-3-ethoxyphenyl) picolinate] | 0 to 29% |
| COC(=O)c1nc(-c2ccc(Cl)nc2Cl)ccc1Cl [F284, Methyl 2′,5,6′-trichloro-[2,3′-bipyridine]-6-carboxylate] | 0 to 29% |
| CCCOC(=O)c1nc(-c2ccc(Cl)c(OC)c2F)ccc1Cl [F286, Propyl 3-chloro-6-(4-chloro-2-fluoro-3-methoxyphenyl) picolinate] | 0 to 29% |

Same assay, conditions: post-emergence, 336 h, wild oat (Avena fatua), 14 Days After Application, 140 g ai/ha, read-out: Visual Growth Reduction (%) AVEFA

| SMILES | pest or weed control at 140 g/ha |
| --- | --- |
| CCOc1c(Cl)ccc(-c2ccc(Cl)c(C(=O)OC)n2)c1Cl [F276, Methyl 3-chloro-6-(2,4-dichloro-3-ethoxyphenyl) picolinate] | 0 to 29% |
| COC(=O)c1nc(-c2ccc(Cl)nc2Cl)ccc1Cl [F284, Methyl 2′,5,6′-trichloro-[2,3′-bipyridine]-6-carboxylate] | 0 to 29% |
| CCCOC(=O)c1nc(-c2ccc(Cl)c(OC)c2F)ccc1Cl [F286, Propyl 3-chloro-6-(4-chloro-2-fluoro-3-methoxyphenyl) picolinate] | 0 to 29% |

Same assay, conditions: post-emergence, 336 h, yellow nutsedge (Cyperus esculentus), 14 Days After Application, 140 g ai/ha, read-out: Visual Growth Reduction (%) CYPES

| SMILES | pest or weed control at 140 g/ha |
| --- | --- |
| CCOc1c(Cl)ccc(-c2ccc(Cl)c(C(=O)OC)n2)c1Cl [F276, Methyl 3-chloro-6-(2,4-dichloro-3-ethoxyphenyl) picolinate] | 0 to 29% |
| COC(=O)c1nc(-c2ccc(Cl)nc2Cl)ccc1Cl [F284, Methyl 2′,5,6′-trichloro-[2,3′-bipyridine]-6-carboxylate] | 0 to 29% |
| CCCOC(=O)c1nc(-c2ccc(Cl)c(OC)c2F)ccc1Cl [F286, Propyl 3-chloro-6-(4-chloro-2-fluoro-3-methoxyphenyl) picolinate] | 0 to 29% |

Source: US20230017045A1, “PYRIDINE AND PYRIMIDINE CARBOXYLATE HERBICIDES AND METHODS OF USE THEREOF” (Dow AgroSciences LLC, priority 2017, published 2023)
